Laboratory results: patent US20110038959A1, “PLANT-ORIGIN DRUG FOR PREVENTING OR IMPROVING HYPERURICEMIA” (priority 2009, published 2011)

Columns and labels:
[1] = target: T1, buttermilk-derived xanthine oxidase (Bos taurus, UniProt P80457); experiment: Xanthine oxidase inhibitory activity assay (xanthine substrate, uric acid detected by absorbance at 295 nm); format: biochemical
T1 construct: an enzyme solution comprising buttermilk-derived xanthine oxidase dissolved at 0.2 units/ml in phosphate buffer; from tissue; host or cells: buttermilk
T1 sequence (P80457 whole entry): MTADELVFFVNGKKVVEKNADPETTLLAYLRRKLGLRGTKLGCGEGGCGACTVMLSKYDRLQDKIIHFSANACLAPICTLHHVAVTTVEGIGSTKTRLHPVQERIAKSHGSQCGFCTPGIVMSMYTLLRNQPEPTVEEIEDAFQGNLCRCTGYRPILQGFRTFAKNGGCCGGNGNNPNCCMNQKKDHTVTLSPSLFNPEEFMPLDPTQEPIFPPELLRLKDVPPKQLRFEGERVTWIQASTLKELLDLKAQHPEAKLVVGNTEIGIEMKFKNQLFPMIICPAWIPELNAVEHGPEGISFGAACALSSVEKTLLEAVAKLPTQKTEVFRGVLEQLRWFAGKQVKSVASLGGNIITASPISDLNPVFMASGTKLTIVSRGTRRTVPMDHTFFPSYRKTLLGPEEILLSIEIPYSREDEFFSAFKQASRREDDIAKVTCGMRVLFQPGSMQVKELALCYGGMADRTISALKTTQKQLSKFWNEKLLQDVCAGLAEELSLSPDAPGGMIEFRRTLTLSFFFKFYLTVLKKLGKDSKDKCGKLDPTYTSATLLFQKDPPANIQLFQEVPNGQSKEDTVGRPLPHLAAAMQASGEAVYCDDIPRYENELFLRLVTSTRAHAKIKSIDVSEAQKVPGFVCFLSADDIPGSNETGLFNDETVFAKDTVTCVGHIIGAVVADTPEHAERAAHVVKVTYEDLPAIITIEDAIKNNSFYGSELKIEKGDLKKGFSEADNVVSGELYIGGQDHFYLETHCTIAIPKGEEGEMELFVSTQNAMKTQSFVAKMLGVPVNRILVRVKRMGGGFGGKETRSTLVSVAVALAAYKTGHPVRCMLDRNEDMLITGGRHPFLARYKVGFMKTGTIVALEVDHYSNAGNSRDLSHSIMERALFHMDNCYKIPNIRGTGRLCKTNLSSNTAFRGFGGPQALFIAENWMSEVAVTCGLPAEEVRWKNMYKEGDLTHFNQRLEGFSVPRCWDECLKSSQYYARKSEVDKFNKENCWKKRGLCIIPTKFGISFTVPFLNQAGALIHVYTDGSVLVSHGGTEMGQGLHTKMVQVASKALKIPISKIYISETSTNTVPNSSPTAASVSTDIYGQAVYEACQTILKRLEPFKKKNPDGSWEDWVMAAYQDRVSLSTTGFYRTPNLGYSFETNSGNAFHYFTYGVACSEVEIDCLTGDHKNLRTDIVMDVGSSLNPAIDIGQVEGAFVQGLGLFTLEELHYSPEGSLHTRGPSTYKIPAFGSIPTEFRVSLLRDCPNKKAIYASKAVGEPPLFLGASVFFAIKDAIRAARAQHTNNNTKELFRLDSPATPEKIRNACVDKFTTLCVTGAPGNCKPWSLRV

[2] = test system: potassium oxonate-induced hyperuricemic rat models; experiment: Uric acid level in blood of potassium oxonate-induced hyperuricemic rat models; format: in vivo, SD rats
Procedure: 5-week-old male SD rats were purchased from Japan SLC, Inc. and were acclimatized for 1 week. The rats were divided into groups based on body weight (each group consisting of 6 rats), and 5 groups were designated in total; i.e., a control group, a group to which the Artemisia extract is administered, a group to which the chrysanthemum extract is administered, a group to which the guava extract is administered, and a group to which the oregano extract is administered. At the outset, potassium oxonate (Sigma-Aldrich) was administered intraperitoneally to rats at a dose of 250 mg/kg of body weight to prepare potassium oxonate-induced hyperuricemic rat models. […] Blood serum was fractionated from the sampled blood via centrifugation and the uric acid level in the blood was measured. […] Blood serum was fractionated from the sampled blood via centrifugation and the uric acid level in the blood was measured. […] Blood serum was fractionated from the sampled blood via centrifugation and the uric acid level in the blood was measured.

O=C(/C=C/c1ccc(O)c(O)c1)c1ccc(O)c(O)c1O [Okanin, okanin]
xanthine oxidase activity compared with allopurinol (in words) ([1]; comparison of IC50 values, Table 2): more potent xanthine oxidase activity than allopurinol
IC50 ([1]; concentration inhibiting 50% of xanthine oxidase activity, solvent control = 100%): 1.5 µM
Uric acid level in blood ([2]; 50 mg okanin per kg body weight 1 hour after potassium oxonate (250 mg/kg i.p.), blood sampled 2 hours after potassium oxonate, control group 4.92 ± 0.53): 4.10 ± 0.56 mg/dL
uric acid level after administration (in words) ([2]; okanin 50 mg/kg, blood 2 hours after potassium oxonate, versus control group, Table 5): significantly lowered uric acid level
